# Assay: TBARS formation in cooked pork model system
# Conditions: 80 μmol/kg meat, stored at 4° C.
# Experimental: Fresh ground pork (40 g) was mixed with deionized water (10 g) in a Mason jar. Samples and reference antioxidant compound (BHA) dissolved in ethanol were added to meat at a level of 80 μmol/kg. A control without any antioxidant was also prepared. The content was thoroughly mixed and cooked at 80° C. in a thermostated water bath for 40 min with intermittent stirring. The cooked meat was cooled to room temperature and homogenized with a Polytron PT 3000 (Brinkmann Instruments, Rexdale, ON) homogenizer. The homogenate was then transferred into plastic bags and stored at 4° C. for 14 days. […].
# TBARS values were determined as described by Shahidi and Hong (Shahidi, F. and Hong, C. Evaluation of malonaldehyde as a marker of oxidative rancidity in meat products. J. Food Biochem. 15, 97-105, 1991).
# A series of TMP (1,1,3,3-tetramethoxypropane) standard solutions at difference concentrations was mixed with thiobarbituric acid (TBA) in screw-capped tubes and heated in a boiling water bath for 45 min. After cooling on ice, the absorbance was recorded at 532 nm and a standard curve was constructed (absorbance versus concentration). For TBARS in the cooked meat model system, 2 g of meat were mixed with 5 ml of trichloroacetic acid (TCA, 10% w/v) in a centrifuge tube, followed by addition of 5 ml of TBA reagent. The mixture was centrifuged at 3000×g for 10 min and the supernatant was filtered. The filtrate was heated in a boiling water bath for 45 min and absorbance was measured at 532 nm after cooling to room temperature. TBARS values in meat samples were obtained using the standard curve as μmol malonaldehyde equivalents/kg of meat. Antioxidant activity was calculated as percentage inhibition of TBARS formation by test compounds.
smiles,measurement,value
"COc1ccc(O)c(C(C)(C)C)c1 [BHA, reference compound]",Inhibition of TBARS formation in cooked pork,83.3 ± 2.34^ab %

# From patent publication US9018248B2, “Fatty acid derivatives of catechins and methods of their use” (Genesis Group Inc., priority 2010, dated 2015)
